≈ marks a conversion by molar mass, not a printed value. Where a SMILES comes first, the peptide text is derived from it. Bridges are numbered along the chain shown (N, C = ends). [ ]: non-standard residue; d: D form. The star is where a group is joined. Ileψ(thiazoline)Cys = CC[C@H](C)[C@H](N)C1=N[C@H](C(=O)*)CS1; dOrn = NCCC[C@@H](N)C(=O)O

This note sets out measurements from publication PMC5426640, “A novel multifunctional peptide oligomer of bacitracin with possible bioindustrial and therapeutic applications from a Korean food-source Bacillus strain” (PLoS ONE, 2017).

The subject of one series is MRSA P3. Kind of series: microbe, parasite or virus in culture. In kind it is cell-based, Staphylococcus aureus. How it is done:
(§1) This activity in terms of minimal inhibitory concentration (MIC) was determined by dilution and disk diffusion methods as per the Clinical and Laboratory Standards Institute (CLSI) guidelines for antimicrobial susceptibility testing. The examination of bacteria was conducted after incubation for 18 h at 37°C following inoculation of various test microorganisms, including methicillin-resistant Staphylococcus aureus (MRSA), vancomycin-resistant S. aureus (VRSA), or vancomycin-resistant enterococci (VRE). Control antibiotics were bacitracin and vancomycin.

Another series has as its system MRSA U4. The experiment in a line: microbe, parasite or virus in culture. In kind it is cell-based, Staphylococcus aureus. How it is done:
as §1

The subject of the next series is MRSA 4–5. Kind of series: microbe, parasite or virus in culture. The class given is cell-based, Staphylococcus aureus. How it is done:
as §1

The test system of another series is MRSA 639E. The experiment in a line: microbe, parasite or virus in culture. The class given is cell-based, Staphylococcus aureus. The settings on record: 18 h. How it is done:
as §1

The next series relates to MSRA S1. The experiment in a line: microbe, parasite or virus in culture. In kind it is cell-based, Staphylococcus aureus. The note with it: 18 h. How it is done: as §1
Another series relates to MRSA S3. The experiment in a line: microbe, parasite or virus in culture. In kind it is cell-based, Staphylococcus aureus. How it is done: as §1
For a further series, the system named is MRSA 5–3. Kind of series: microbe, parasite or virus in culture. The class given is cell-based, Staphylococcus aureus. How it is done: as §1
Series [1] deals with Staphylococcus aureus KCTC 1928. The class given is cell-based. The note with it: KCTC 1928, 18 h. How it is done:
as §1

Series [2] has as its system Enterococcus faecalis ATCC 29212. In kind it is cell-based. The note with it: ATCC 29212, 18 h. How it is done:
as §1

Series [3] has as its system Bacillus subtilis ATCC 6633. The class given is cell-based. The settings on record: ATCC 6633, 18 h. How it is done:
as §1

The subject of series [4] is Escherichia coli KCTC 1923. In kind it is cell-based. The note with it: KCTC 1923, 18 h. How it is done: as §1
In series [5] the test system is Pseudomonas aeruginosa KCTC 1637. In kind it is cell-based. The note with it: KCTC 1637, 18 h. How it is done: as §1
The subject of the next series is VRSA. Kind of series: microbe, parasite or virus in culture. The class given is cell-based, S. aureus. The note with it: 18 h. How it is done:
as §1

Series [6] relates to Alcaligenes faecalis ATCC 1004. The experiment in a line: microbe, parasite or virus in culture. The class given is cell-based. How it is done:
as §1

Series [7] relates to Salmonella typhimurium KCTC 1925. The experiment in a line: microbe, parasite or virus in culture. The class given is cell-based. How it is done:
as §1

For series [8], the system named is Mycobacterium smegmatis ATCC 9341. The experiment in a line: microbe, parasite or virus in culture. In kind it is cell-based. The settings on record: ATCC 9341, 18 h. How it is done:
as §1

For series [9], the system named is Listeria monocytogenes KCTC3569. Kind of series: microbe, parasite or virus in culture. In kind it is cell-based. The note with it: KCTC3569, 18 h. How it is done:
as §1

For series [10], the system named is Micrococcus luteus ATCC 9341. Kind of series: microbe, parasite or virus in culture. The class given is cell-based. How it is done: as §1
The subject of a further series is VRE 2. Kind of series: microbe, parasite or virus in culture. The settings on record: 18 h. The class given is cell-based, enterococci. How it is done:
as §1

The subject of the next series is VRE5. The experiment in a line: organism not typed. In kind it is cell-based, enterococci. The settings on record: 18 h. How it is done:
as §1

For another series, the system named is VRE4. The experiment in a line: organism not typed. In kind it is cell-based, enterococci. The note with it: 18 h. How it is done:
as §1

Another series concerns VRE82. The experiment in a line: organism not typed. The class given is cell-based, enterococci. The settings on record: 18 h. How it is done:
as §1

For the next series, the system named is VRE3. Kind of series: organism not typed. The settings on record: 18 h. The class given is cell-based, enterococci. How it is done:
as §1

A further series relates to VRE6. Kind of series: organism not typed. The class given is cell-based, enterococci. The settings on record: 18 h. How it is done: as §1
The subject of the next series is VRE89. Kind of series: organism not typed. The class given is cell-based, enterococci. The settings on record: 18 h. How it is done: as §1
The next series deals with RAW 264.7 cells. The experiment in a line: Cell viability, MTT assay. In kind it is cell-based, mouse. The note with it: 5–100 μg/mL, 24 h; three independent experiments in triplicate. How it is done: Cell viability was assessed using the 3-(4,5-dimethylthiazol-2-yl)-2,5-diphenyltetrazolium bromide (MTT) assay as described previously by Choi et al. (2016). For the cell viability assay, RAW 264.7 cells were seeded into a 96-well flat bottom microplate at a density of 2 × 10^4 cells per well and incubated at 37°C for 1 h. […] After 24 h of incubation, the medium was removed and wash in PBS once followed by 100 μl of MTT (5 mg/ml in PBS) solution was added to each well, and the plate was incubated for another 1 h. Then 100 μl of DMSO (100%) was added to dissolve the formazan crystals. Absorbance values were then measured at 450 nm using a microplate reader (Victor3, PerkinElmer).

For series [11], the system named is Propionibacterium acnes KCTC5933. Kind of series: Antimicrobial activity against anaerobic pathogens (mm). In kind it is cell-based. The note with it: 48 h, mean ± SD, n = 3.
For series [12], the system named is Clostridium difficile KCTC2251. Described as above. The settings on record: 48 h, mean ± SD, n = 3. The class given is cell-based.
The next series has as its system Mycobacterium smegmatis. Kind of series: microbe, parasite or virus in culture. The class given is cell-based. The settings on record: Mycolicibacterium smegmatis, ATCC9341, 18 h. How it is done: as §1
Where [13] appears, read: Staphylococcus aureus, MRSA, 18 h.

Regarding `CC[C@H](C)[C@H](N)C1=N[C@H](C(=O)N[C@@H](CC(C)C)C(=O)N[C@H](CCC(=O)O)C(=O)N[C@H](C(=O)N[C@H]2CCCCNC(=O)[C@H](CC(N)=O)NC(=O)[C@@H](CC(=O)O)NC(=O)[C@H](Cc3cnc[nH]3)NC(=O)[C@@H](Cc3ccccc3)NC(=O)[C@H]([C@@H](C)CC)NC(=O)[C@@H](CCCN)NC2=O)[C@@H](C)CC)CS1` [Bacitracin] ({Ileψ(thiazoline)Cys}-L[dE]IK[dOrn]I[dF]H[dD]N; lactam 4-C (inferred); N-terminus assumed), the MIC with MRSA P3 (P3, 18 h) was found to be 1.25 µg/mL (≈ 0.879 µM); against MRSA U4 (U4, 18 h) it was 1.25 µg/mL (≈ 0.879 µM); in the series on MRSA 4–5 (4–5, 18 h) it was 1.25 µg/mL (≈ 0.879 µM); in the series with MRSA 639E (639E), 40 µg/mL (≈ 28.1 µM); in the series with MSRA S1, 1.25 µg/mL (≈ 0.879 µM); in the series on MRSA S3 (S3, 18 h), 1.25 µg/mL (≈ 0.879 µM). Further, the MIC in the series with MRSA 5–3 (5–3, 18 h) is 1.25 µg/mL (≈ 0.879 µM); in [1], 40 µg/mL (≈ 28.1 µM); in series [2], 5 µg/mL (≈ 3.51 µM); in series [3] it was 40 µg/mL (≈ 28.1 µM); in series [4], >80 µg/mL; in [5], >80 µg/mL. Further, the MIC against VRSA is >80 µg/mL; in series [6] (ATCC 1004, 18 h), >80 µg/mL; in series [7] (KCTC 1925, 18 h), >80 µg/mL; in series [8], >80 µg/mL; in series [9] it was 0.3125 µg/mL (≈ 0.22 µM); in [10] (ATCC 9341, 18 h) it was >80 µg/mL. In addition, the MIC in the series with VRE 2 was 0.3125 µg/mL (≈ 0.22 µM); with VRE5, 1.25 µg/mL (≈ 0.879 µM); against VRE4, 5 µg/mL (≈ 3.51 µM); with VRE82 it was 40 µg/mL (≈ 28.1 µM); against VRE3 it was 20 µg/mL (≈ 14.1 µM); in the series on VRE6, >80 µg/mL. The same compound yielded an MIC against VRE89 of 40 µg/mL (≈ 28.1 µM).

Take `CC[C@H](C)[C@H](N)C1=N[C@H](C(=O)N[C@@H](CC(C)C)C(=O)N[C@H](CCC(=O)O)C(=O)N[C@H](C(=O)N[C@H]2CCCCNC(=O)[C@H](CC(N)=O)NC(=O)[C@@H](CC(=O)O)NC(=O)[C@H](Cc3cnc[nH]3)NC(=O)[C@@H](Cc3ccccc3)NC(=O)[C@H]([C@@H](C)CC)NC(=O)[C@@H](CCCN)NC2=O)[C@@H](C)CC)CS1` [CSP32] ({Ileψ(thiazoline)Cys}-L[dE]IK[dOrn]I[dF]H[dD]N; lactam 4-C): in the series with RAW 264.7 cells, the “Cytotoxicity toward RAW 264.7 cells (MTT)” value is listed as “did not exert cytotoxicity”.

`CC[C@@]1([C@@H]2O[C@@H]([C@H]3O[C@@](O)(CO)[C@H](C)C[C@@H]3C)C[C@@H]2C)CC[C@H]([C@]2(C)CC[C@]3(C[C@H](O)[C@@H](C)[C@@H]([C@@H](C)[C@@H](OC)[C@H](C)C(=O)O)O3)O2)O1` [Monensin]: the “Antimicrobial activity, Propionibacterium acnes (mm)” value is 13.00±0.50 mm in series [11] (concentration 0.125 mg/mL), 15.17±0.29 mm in [11] (concentration 0.25 mg/mL), 17.33±0.58 mm in series [11] (concentration 0.5 mg/mL) and 17.17±0.29 mm in series [11] (concentration 1 mg/mL). Also, the “Antimicrobial activity, Clostridium difficile (mm)” value in series [12] (concentration 0.125 mg/mL) amounted to 13.17±0.29 mm; in series [12] (concentration 0.25 mg/mL) it was 13.00±0.50 mm; in series [12] (concentration 0.5 mg/mL), 15.17±0.29 mm; in series [12] (concentration 1 mg/mL) it was 17.33±0.29 mm.

Turning to `CN[C@H](CC(C)C)C(=O)N[C@H]1C(=O)N[C@@H](CC(N)=O)C(=O)N[C@H]2C(=O)N[C@H]3C(=O)N[C@H](C(=O)N[C@H](C(=O)O)c4cc(O)cc(O)c4-c4cc3ccc4O)[C@H](O)c3ccc(c(Cl)c3)Oc3cc2cc(c3O[C@@H]2O[C@H](CO)[C@@H](O)[C@H](O)[C@H]2O[C@H]2C[C@](C)(N)[C@H](O)[C@H](C)O2)Oc2ccc(cc2Cl)[C@H]1O` [Vancomycin], the MIC turned out to be 0.625 µg/mL (≈ 0.431 µM) against MRSA P3 (setting [13]); 0.312 µg/mL (≈ 0.216 µM) with MRSA U4 (setting [13]); 0.312 µg/mL (≈ 0.216 µM) in the series on MRSA 4–5 (setting [13]); 0.312 µg/mL (≈ 0.216 µM) with MRSA 639E (Staphylococcus aureus, MRSA); 0.625 µg/mL (≈ 0.431 µM) with MSRA S1 (Staphylococcus aureus); 0.312 µg/mL (≈ 0.216 µM) in the series with MRSA S3 (setting [13]). Also, the MIC in the series with MRSA 5–3 (setting [13]) is 0.312 µg/mL (≈ 0.216 µM); in the series with VRSA (Staphylococcus aureus, VRSA), > 80 µg/mL; in series [6] (Alcaligenes faecalis, ATCC1004, 18 h), > 80 µg/mL; against Mycobacterium smegmatis it was 0.312 µg/mL (≈ 0.216 µM); in [7] (Salmonella enterica, 18 h), > 80 µg/mL; in [9] (Listeria monocytogenes) it was 0.156 µg/mL (≈ 0.108 µM). For the same compound, the MIC was 0.156 µg/mL (≈ 0.108 µM) in [10] (Micrococcus luteus, ATCC9341, 18 h); > 80 µg/mL against VRE 2 (Enterococcus, VRE); > 80 µg/mL in the series with VRE5; > 80 µg/mL with VRE4; > 80 µg/mL with VRE82; > 80 µg/mL against VRE3. Further, the MIC with VRE6 and against VRE89 was > 80 µg/mL throughout.
